Assays:
Assay type in all cases: cell-based
Settings in all cases: HEK-293-EBNA stable transfectants
hTP = biological target: T1, hTP (Homo sapiens, UniProt P21731); experiment: Functional data, human recombinant TP receptor stable transfectants
T1 construct: expressed in transfected cells; host or cells: HEK-293-EBNA
T1 sequence (P21731 1-343): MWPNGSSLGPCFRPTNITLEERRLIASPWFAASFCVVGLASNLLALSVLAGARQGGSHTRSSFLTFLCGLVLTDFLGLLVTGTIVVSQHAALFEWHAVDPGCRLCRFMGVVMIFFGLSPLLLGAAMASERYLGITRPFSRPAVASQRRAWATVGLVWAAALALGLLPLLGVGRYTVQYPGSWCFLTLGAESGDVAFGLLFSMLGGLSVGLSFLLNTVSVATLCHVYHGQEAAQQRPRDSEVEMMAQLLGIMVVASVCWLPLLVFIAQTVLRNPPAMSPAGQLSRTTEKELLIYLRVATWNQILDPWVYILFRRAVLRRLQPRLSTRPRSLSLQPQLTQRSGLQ
Method: (§1) Human Recombinant EP1, EP2, EP3, EP4, FP, TP, IP and DP Receptors: Stable Transfectants.
(§2) Plasmids encoding the human EP1, EP2, EP3, EP4, FP, TP, IP and DP receptors were prepared by cloning the respective coding sequences into the eukaryotic expression vector pCEP4 (Invitrogen). The pCEP4 vector contains an Epstein Barr virus (EBV) origin of replication, which permits episomal replication in primate cell lines expressing EBV nuclear antigen (EBNA-1). It also contains a hygromycin resistance gene that is used for eukaryotic selection. The cells employed for stable transfection were human embryonic kidney cells (HEK-293) that were transfected with and express the EBNA-1 protein. These HEK-293-EBNA cells (Invitrogen) were grown in medium containing Geneticin (G418) to maintain expression of the EBNA-1 protein. HEK-293 cells were grown in DMEM with 10% fetal bovine serum (FBS), 250 μg ml^−1 G418 (Life Technologies) and 200 μg ml^−1 gentamicin or penicillin/streptomycin.
(§3) For transfection, the cells were grown to 50-60% confluency on 10 cm plates. The plasmid pCEP4 incorporating cDNA inserts for the respective human prostanoid receptor (20 μg) was added to 500 μl of 250 mM CaCl2. HEPES buffered saline×2 (2×HBS, 280 mM NaCl, 20 mM HEPES acid, 1.5 mM Na2 HPO4, pH 7.05-7.12) was then added dropwise to a total of 500 μl, with continuous-vortexing at room temperature. After 30 min, 9 ml DMEM were added to the mixture. The DNA/DMEM/calcium phosphate mixture was then added to the cells, which had been previously rinsed with 10 ml PBS. The cells were then incubated for 5 hr at 37° C. in humidified 95% air/5% CO2. The calcium phosphate solution was then removed and the cells were treated with 10% glycerol in DMEM for 2 min. The glycerol solution was then replaced by DMEM with 10% FBS. The cells were incubated overnight and the medium was replaced by DMEM/10% FBS containing 250 μg ml^−1 G418 and penicillin/streptomycin. The following day hygromycin B was added to a final concentration of 200 μg ml^−1.
(§4) Ten days after transfection, hygromycin B resistant clones were individually selected and transferred to a separate well on a 24 well plate. At confluence each clone was transferred to one well of a 6 well plate, and then expanded in a 10 cm dish. Cells were maintained under continuous hygromycin selection until use.

hEP4 = biological target: T2, hEP4 (Homo sapiens, UniProt P35408); experiment: Functional data, human recombinant EP4 receptor stable transfectants
T2 construct: expressed in transfected cells; host or cells: HEK-293-EBNA
T2 sequence (P35408 whole entry): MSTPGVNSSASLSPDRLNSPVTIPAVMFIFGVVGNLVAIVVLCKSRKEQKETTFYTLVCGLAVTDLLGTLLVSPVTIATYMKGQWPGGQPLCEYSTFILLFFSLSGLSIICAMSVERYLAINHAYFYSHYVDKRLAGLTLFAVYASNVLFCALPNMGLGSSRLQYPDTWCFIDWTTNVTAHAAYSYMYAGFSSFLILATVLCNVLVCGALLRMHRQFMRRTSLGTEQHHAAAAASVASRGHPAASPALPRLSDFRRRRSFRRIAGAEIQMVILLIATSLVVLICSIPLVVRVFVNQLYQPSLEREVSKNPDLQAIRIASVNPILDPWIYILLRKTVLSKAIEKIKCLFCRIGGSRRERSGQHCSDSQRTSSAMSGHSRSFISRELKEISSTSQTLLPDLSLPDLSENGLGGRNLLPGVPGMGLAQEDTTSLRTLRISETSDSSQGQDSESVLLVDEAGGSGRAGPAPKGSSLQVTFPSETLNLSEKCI
Method: as §1, §2, §3, §4

hEP3A = biological target: T3, hEP3A (Homo sapiens, UniProt P43115); experiment: Functional data, human recombinant EP3 receptor stable transfectants
T3 construct: expressed in transfected cells; host or cells: HEK-293-EBNA
T3 sequence (P43115 1-390): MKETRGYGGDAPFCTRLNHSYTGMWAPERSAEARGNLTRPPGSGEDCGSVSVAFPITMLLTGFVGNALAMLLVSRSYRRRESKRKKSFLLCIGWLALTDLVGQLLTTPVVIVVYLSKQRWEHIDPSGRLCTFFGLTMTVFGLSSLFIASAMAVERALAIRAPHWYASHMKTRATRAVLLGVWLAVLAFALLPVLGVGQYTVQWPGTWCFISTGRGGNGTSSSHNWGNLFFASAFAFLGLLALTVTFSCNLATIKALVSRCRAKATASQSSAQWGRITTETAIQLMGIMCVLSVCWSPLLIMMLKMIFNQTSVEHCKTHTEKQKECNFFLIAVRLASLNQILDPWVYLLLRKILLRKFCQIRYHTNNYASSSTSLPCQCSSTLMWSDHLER
Method: as §1, §2
(§5) For transfection, the cells were grown to 50-60% confluency on 10 cm plates. The plasmid pCEP4 incorporating cDNA inserts for the respective human prostanoid receptor (20 μg) was added to 500 μl of 250 mM CaCl2. HEPES buffered saline×2 (2×HBS, 280 mM NaCl, 20 mM HEPES acid, 1.5 mM Na2 HPO4, pH 7.05-7.12) was then added dropwise to a total of 500 μl, with continuous-vortexing at room temperature. […]

hEP1 = biological target: T4, hEP1 (Homo sapiens, UniProt P34995); experiment: Functional data, human recombinant EP1 receptor stable transfectants
T4 construct: expressed in transfected cells; host or cells: HEK-293-EBNA
T4 sequence (P34995 1-402): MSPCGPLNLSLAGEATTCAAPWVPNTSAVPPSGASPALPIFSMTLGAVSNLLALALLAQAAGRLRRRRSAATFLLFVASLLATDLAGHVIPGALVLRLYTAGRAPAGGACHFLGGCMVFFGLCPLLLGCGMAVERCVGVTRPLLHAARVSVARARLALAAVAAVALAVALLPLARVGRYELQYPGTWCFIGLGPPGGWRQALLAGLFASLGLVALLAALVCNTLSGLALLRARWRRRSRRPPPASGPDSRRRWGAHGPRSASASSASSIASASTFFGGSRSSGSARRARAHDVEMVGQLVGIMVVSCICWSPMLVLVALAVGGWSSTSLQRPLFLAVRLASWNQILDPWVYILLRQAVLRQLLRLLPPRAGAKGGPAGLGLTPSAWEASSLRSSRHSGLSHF
Method: as §1, §2, §5

hEP2 = biological target: T5, hEP2 (Homo sapiens, UniProt P43116); experiment: Functional data, human recombinant EP2 receptor stable transfectants
T5 construct: expressed in transfected cells; host or cells: HEK-293-EBNA
T5 sequence (P43116 whole entry): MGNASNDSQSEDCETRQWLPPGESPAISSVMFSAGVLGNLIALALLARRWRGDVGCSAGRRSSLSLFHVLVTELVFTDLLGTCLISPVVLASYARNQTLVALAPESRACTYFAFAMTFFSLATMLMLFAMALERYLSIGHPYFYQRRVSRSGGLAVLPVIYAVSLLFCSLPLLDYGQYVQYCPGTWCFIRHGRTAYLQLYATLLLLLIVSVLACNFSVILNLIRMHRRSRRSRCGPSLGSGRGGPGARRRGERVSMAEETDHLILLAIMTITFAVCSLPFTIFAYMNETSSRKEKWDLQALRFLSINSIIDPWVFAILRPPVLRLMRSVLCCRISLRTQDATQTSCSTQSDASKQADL
Method: as §1, §2, §5

| SMILES | EC50 (hTP) | EC50 (hEP4) | also measured |
| --- | --- | --- | --- |
| COC(=O)COCCCCN1C(=O)CCC[C@@H]1/C=C/C(=O)Cc1ccccc1 [Example 1, {4-[(R)-2-Oxo-6-((E)-3-oxophenyl-but-1-enyl)-piperidin-1-yl]-butoxy}-Acetic acid methyl ester] | > 10000 nM | – | – |
| O=C(O)COCCCCN1C(=O)CCC[C@@H]1/C=C/C(=O)Cc1ccccc1 [Example 2, {4-[(R)-2-Oxo-6-((E)-3-oxo-4-phenyl-but-1-enyl)-piperidin-1-yl]-butoxy}-acetic acid] | 2260 nM | 300 nM | EC50 (hEP3A): > 10000 nM |
| COC(=O)COCCCCN1C(=O)CCC[C@@H]1/C=C/C(O)Cc1ccccc1 (stereo partly drawn) [Example 3, {4-[(R)-2-((E)-3-Hydroxy-4-phenyl-but-1-enyl)-6-oxo-piperidin-1-yl]-butoxy}-acetic acid methyl ester] | – | 1100 nM | – |
| O=C(O)COCCCCN1C(=O)CCC[C@@H]1/C=C/C(O)Cc1ccccc1 (stereo partly drawn) [Example 4, {4-[(R)-2-((E)-3-Hydroxy-4-phenyl-but-1-enyl)-6-oxo-piperidin-1-yl]-butoxy}-acetic acid] | – | 145 nM | – |
| COC(=O)COCCCCN1C(=O)CCC[C@@H]1CCC(O)Cc1ccccc1 (stereo partly drawn) [Example 5, {4-[(R)-2-(3-Hydroxy-4-phenyl-butyl)-6-oxo-piperidin-1-yl]-butoxy}-acetic acid methyl ester] | – | > 10000 nM | EC50 (hEP3A): > 10000 nM |
| O=C(O)COCCCCN1C(=O)CCC[C@@H]1CCC(O)Cc1ccccc1 (stereo partly drawn) [Example 6, {4-[(R)-2-(3-Hydroxy-4-phenyl-butyl)-6-oxo-piperidin-1-yl]-butoxy}-acetic acid] | – | > 10000 nM | – |
| O=C(O)COC/C=C\CN1C(=O)CCC[C@@H]1/C=C/C(=O)Cc1ccccc1 [Example 8, {(Z)-4-[(R)-2-Oxo-6-((E)-3-oxo-4-phenyl-but-1-enyl)-piperidin-1-yl]-but-2-enyloxy}-acetic acid] | > 10000 nM | 2560 nM | – |
| COC(=O)COCCCCN1C(=O)CCC[C@@H]1CCC(=O)Cc1ccccc1 [Example 9, {4-[(R)-2-Oxo-6-(3-oxo-4-phenyl-butyl)-piperidin-1-yl]-butoxy}-acetic acid methyl ester] | – | 7540 nM | – |
| O=C(O)COCCCCN1C(=O)CCC[C@@H]1CCC(=O)Cc1ccccc1 [Example 10, {4-[(R)-2-Oxo-6-(3-oxo-4-phenyl-butyl)-piperidin-1-yl]-butoxy}-acetic acid] | > 10000 nM | 1970 nM | – |
| O=C(O)COC/C=C\CN1C(=O)CCC[C@@H]1/C=C/C(O)Cc1ccccc1 (stereo partly drawn) [Example 12, {(Z)-4-[(R)-2-((E)-3-Hydroxy-4-phenyl-but-1-enyl)-6-oxo-piperidin-1-yl]-but-2-enyloxy}-acetic acid] | – | > 10000 nM | – |
| O=C(O)COC/C=C\CN1C(=O)CCC[C@@H]1CCC(=O)Cc1ccccc1 [Example 14, {(Z)-4[(R)-2-Oxo-6-(3-oxo-4-phenyl-butyl)-piperidin-1-yl]-but-2-enyloxy}-acetic acid] | > 10000 nM | > 10000 nM | – |
| O=C(O)COC/C=C\CN1C(=O)CCC[C@@H]1CCC(O)Cc1ccccc1 (stereo partly drawn) [Example 16, {(Z)-4-[(R)-2-(3-Hydroxy-4-phenyl-butyl)-6-oxo-piperidin-1-yl]-but-2-enyloxy}-acetic acid] | – | > 10000 nM | – |
| O=C(O)COCCCCN1C(=O)CCC[C@@H]1/C=C/C(O)Cc1cccc(Cl)c1 (stereo partly drawn) [Example 17, (4-{(R)-2-[(E)4(3-Chlorophenyl)-3-hydroxy-but-1-enyl]-6-oxo-piperidin-1-yl}-butoxy)-acetic acid] | – | – | EC50 (hEP1): > 10000 nM; EC50 (hEP2): > 10000 nM |
| NC(=O)COCCCCN1C(=O)CCC[C@@H]1/C=C/C(O)Cc1cccc(Cl)c1 (stereo partly drawn) [Example 18, 2-(4-{(R)-2-[(E)-4-(3-Chlorophenyl)-3-hydroxy-but-1 enyl]-6-oxo-piperidin-1-yl}-butoxy)-acetamide] | > 10000 nM | – | – |
